Reference: patent US20240376118A1, “BI-FUNCTIONAL COMPOUNDS AND METHODS FOR TARGETED UBIQUITINATION OF ANDROGEN RECEPTOR” (MONTELINO THERAPEUTICS, INC., priority 2021, published 2024)
pIC50: −log10 of the molar value.

test system: 22Rv1-Enz^R human prostate cancer cell line; experiment: 22Rv1-Enz^R cell proliferation assay; assay type: cell-based; details: 22Rv1-Enz^R cells, 6-day culture, cell media changed every 24 hours, read-out: 22Rv1-Enz^R proliferation assay GIC50 (half maximal growth inhibition constant)
Procedure: The human prostate cancer cell line, 22Rv1 has been reported to express a high level of AR-V7. According to one procedure, 22Rv1 is seeded at 50,000 cells/well on a 24-well plate in quadruplicate and treated with test compounds in concentrations ranging up to 20 μM for four days. Standard culture media is RPMI-1640 supplemented with 10% fetal bovine serum. The test compound initially is dissolved in DMSO at 50 mM. This stock solution is then diluted as needed for the indicated concentrations. At the end of the four-day period, cells are harvested using 1% trypsin and counted using an automated cell counter.
Cell Culture. Human CaP cell lines, LNCaP, 22Rv1, VCaP, PC3, and DU145 are obtained from the American Type Culture Collection (ATCC) and maintained in the standard culture media: RPMI-1640 supplemented with 10% fetal bovine serum (FBS). LNCaP, 22Rv1, and VCaP are androgen-responsive cell lines, while PC3 and DU145 are not. To establish SAT resistant CaP cell lines, LNCaP, 22Rv1, and VCaP are treated continuously with 10-50 μM abiraterone, apalutamide, darolutamide, or enzalutamide. After 3-6 months, stable cell lines are established and designated as LNCaP-Abi^R, LNCaP-Apa^R, LNCaP-Daro^R, LNCaP-Enz^R, VCaP-Abi^R, VCaP-Apa^R, VCaP-Daro^R, VCaP-Enz^R, 22Rv1-Abi^R, 22Rv1-Apa^R, 22Rv1-Daro^R and 22Rv1-Enz^R. Unless otherwise specified, the standard culture media for these SAT-resistant cell lines included 10 μM of their respective SAT. For the proteasome inhibitor study, the inhibitors MG132 and Epoxomicin are used. The E3 ligase inhibitors Heclin, Nutlin 3a, Thalidomide, and VH298 are used. Cell lines obtained from ATCC are confirmed by checking their morphology using optical microscopy, establishing baselines for cell proliferation, verifying species of origin using isoenzymology, and characterizing the cell's DNA fingerprint using short tandem repeat (STR) profiling. Mycoplasma contamination is also assessed using a PCR based detection system.
Selected compounds may be tested in the human prostate cancer cell line, 22Rv1-Enz^R, as described in Geun Taek Lee et al., Molecular Cancer Therapeutics, 20:490-9 (2021). These procedures are similar to that described in Experimental Example 1, above, except that the assay conditions are a 6-day culture with cell media changed every 24 hours.

SMILES	pIC50
O=C(COc1c(-c2csc(N3CCOCC3)n2)ccc(F)c1F)NCCCCC(=O)N1CCN(c2cc3c(cc2F)C(=O)N(C2CCC(=O)NC2=O)C3=O)CC1 (stereo not drawn) [Example 1, 2-(2,3-difluoro-6-(2-morpholinothiazol-4-yl)phenoxy)-N-(5-(4-(2-(2,6-dioxopiperidin-3-yl)-6-fluoro-1,3-dioxoisoindolin-5-yl)piperazin-1-yl)-5-oxopentyl)acetamide]	> 5.00
O=C(COc1c(-c2csc(N3CCOCC3)n2)ccc(F)c1F)NCCCCCCC(=O)N1CCN(c2cc3c(cc2F)C(=O)N(C2CCC(=O)NC2=O)C3=O)CC1 (stereo not drawn) [Example 2, 2-(2,3-difluoro-6-(2-morpholinothiazol-4-yl)phenoxy)-N-(7-(4-(2-(2,6-dioxopiperidin-3-yl)-6-fluoro-1,3-dioxoisoindolin-5-yl)piperazin-1-yl)-7-oxoheptyl)acetamide]	> 5.00
O=C(COc1c(-c2csc(N3CCOCC3)n2)ccc(F)c1F)NCCCCCCCCCCC(=O)N1CCN(c2cc3c(cc2F)C(=O)N(C2CCC(=O)NC2=O)C3=O)CC1 (stereo not drawn) [Example 3, 2-(2,3-difluoro-6-(2-morpholinothiazol-4-yl)phenoxy)-N-(11-(4-(2-(2,6-dioxopiperidin-3-yl)-6-fluoro-1,3-dioxoisoindolin-5-yl)piperazin-1-yl)-11-oxoundecyl)acetamide]	> 5.00
O=C1CCC(N2C(=O)c3cc(F)c(N4CCN(CC5CCN(C(=O)COc6c(-c7csc(N8CCOCC8)n7)ccc(F)c6F)CC5)CC4)cc3C2=O)C(=O)N1 (stereo not drawn) [Example 20, 5-(4-((1-(2-(2,3-difluoro-6-(2-morpholinothiazol-4-yl)phenoxy)acetyl)piperidin-4-yl)methyl)piperazin-1-yl)-2-(2,6-dioxopiperidin-3-yl)-6-fluoroisoindoline-1,3-dione]	> 5.00

The next lines start with the values.

pIC50	SMILES
> 5.00	O=C(COc1c(-c2csc(N3CCOCC3)n2)ccc(F)c1F)NCCCCCCCCCCNc1cc2c(cc1F)C(=O)N(C1CCC(=O)NC1=O)C2=O (stereo not drawn) [Example 25, 2-(2,3-difluoro-6-(2-morpholinothiazol-4-yl)phenoxy)-N-(10-((2-(2,6-dioxopiperidin-3-yl)-6-fluoro-1,3-dioxoisoindolin-5-yl)amino)decyl)acetamide]
> 5.00	O=C1CCC(N2C(=O)c3cc(F)c(NCCCCOCCOCCOCCOc4c(-c5csc(N6CCOCC6)n5)ccc(F)c4F)cc3C2=O)C(=O)N1 (stereo not drawn) [Example 32, 5-((4-(2-(2-(2-(2,3-difluoro-6-(2-morpholinothiazol-4-yl)phenoxy)ethoxy)ethoxy)ethoxy)butyl)amino)-2-(2,6-dioxopiperidin-3-yl)-6-fluoroisoindoline-1,3-dione]
